# In patent publication US20250186405A1, “Compound For Use In Treating Narcolepsy” (Alkermes, Inc., priority 2023, published 2025):
# Test system: subjects with narcolepsy type-1 (NT1)
# Assay: Part 4 NT1: Maintenance of Wakefulness Test (MWT) sleep latency
# Assay type: in vivo, human
# Settings: for change from baseline in average sleep latency on MWT vs placebo: 1, 3 and 8 mg
# Experimental: On Day −1, approximately 25 hours prior to study drug administration (on Day 1), baseline assessments for Maintenance of Wakefulness Test (MWT) began and were collected in a series of trials over approximately 10 hours.
# At specified time points (Part 4), MWT assessments were performed and took up to 40 minutes to complete. The MWT is the standard objective measure of an individual's ability to remain awake during the daytime in a darkened, quiet environment and is commonly used to assess response to treatment. The MWT assessments were performed according to American Academy of Sleep Medicine (AASM) guidance. During the MWT trials, subjects were seated in a bed or reclining chair in a darkened room with their back and head supported such that their neck is not uncomfortably flexed or extended. Subjects are instructed to sit still and remain awake for as long as possible during each 40-minute trial. If the subject fell asleep during a trial, they were awakened, and the trial was terminated. […] Upon completion of the trial, the subject returned to a normal environment/ambiance and remained awake (and were awakened if they fall asleep) until the next trial.
# Once Part 4 was completed, the EEG data recorded during the MWT, as well as the technician notes, were transferred to the EEG vendor for further analysis. Technician notes were also maintained for transfer to Sponsor at the end of the study. A precise assessment of sleep latency was conducted by an experienced sleep scorer from the EEG vendor, and spectral analysis was performed on the EEG data recorded during MWT to assess absolute and relative powers in standard frequency bands (i.e., qEEG). All raw data and analysis results were transferred to the Sponsor.
# For the changes from baseline in average sleep latency across the first 4 sessions of the MWT, descriptive statistics were provided by dose level. Mixed model with repeated measure (MMRM) for the 4-period crossover design were conducted with the change from baseline as a dependent variable, and the dose level and the period as fixed factors. The differences in the least square means between each Compound A dose level and the placebo (each Compound A dose level—the placebo), and the 2-sided CIs were provided.
# Evaluation of Compound A effects on average sleep latency across 4 timepoints of MWT (2-, 4-, 6-, and 8-hours post-dose) from 4 patients with NT1 has been conducted at pre-dose baseline series on Day −1, and each of the crossovers (Days 1, 3, 5 and 7), testing placebo, and active dose levels of 1, 3, and 8 mg in the patients with NT1 compared to placebo.
# Evaluation of Compound A effects on average sleep latency across 4 timepoints of MWT (2-, 4-, 6-, and 8-hours post-dose) from 10 patients with NT1 (including the 4 patients described above in 4.19.1) has been conducted at pre-dose baseline series on Day −1, and each of the crossovers (Days 1, 3, 5 and 7), testing placebo, and active dose levels of 1, 3, and 8 mg in the patients with NT1 compared to placebo.
# [1] = 1 mg, NT1, N = 9 (10-patient analysis, Table 13a)
# [2] = 3 mg, NT1, N = 9 (10-patient analysis, Table 13a)
# [3] = 8 mg, NT1, N = 10 (10-patient analysis, Table 13a)
smiles,measurement,setting,value
"CS(=O)(=O)N[C@H]1CCCN2C(=O)COc3ccccc3C3CCC(CC3)OCC12 (stereo partly drawn) [Compound A, N-[(4S,4aR,7α,10α)-1,2,3,4,4a,5,7,8,9,10,16,17-dodecahydro-17-oxo-7,10-ethanopyrido[1,2-d][1,7,4]benzodioxaazacyclotridecin-4-yl]methanesulfonamide]",average sleep latency improvement on MWT,"1 mg, 4 patients with NT1",19.5 min
same,"Change from Day −1 in Average Sleep Latency on the MWT, LSM difference vs placebo","1 mg, NT1, N = 4",19.47 min
same,"Change from Day −1 in Average Sleep Latency on the MWT, LSM","1 mg, NT1, N = 4, average of 2, 4, 6, 8 h post-dose",18.41 min
same,"Change from Day −1 in Average Sleep Latency on the MWT, LSM",[1],16.95 min
same,"Change from Day −1 in Average Sleep Latency on the MWT, LSM difference vs placebo",[1],18.38 min
same,MWT by-timepoint effect,"3 mg, 4 patients with NT1","maximum effect over 2, 4 and 6-hour timepoints, and meaningful effect at 8 hours"
same,"Change from Day −1 in Average Sleep Latency on the MWT, LSM difference vs placebo","3 mg, NT1, N = 4",31.16 min
same,"Change from Day −1 in Average Sleep Latency on the MWT, LSM","3 mg, NT1, N = 4, average of 2, 4, 6, 8 h post-dose",30.09 min
same,"Change from Day −1 in Average Sleep Latency on the MWT, LSM",[2],21.15 min
same,"Change from Day −1 in Average Sleep Latency on the MWT, LSM difference vs placebo",[2],22.57 min
same,MWT effect at every timepoint (maximum score 40 minutes),"8 mg, 4 patients with NT1, including 10 hours post-dose",40 min
same,"Change from Day −1 in Average Sleep Latency on the MWT, LSM difference vs placebo","8 mg, NT1, N = 4",38.13 min
same,"Change from Day −1 in Average Sleep Latency on the MWT, LSM","8 mg, NT1, N = 4, average of 2, 4, 6, 8 h post-dose",37.06 min
same,"Change from Day −1 in Average Sleep Latency on the MWT, LSM",[3],32.55 min
same,"Change from Day −1 in Average Sleep Latency on the MWT, LSM difference vs placebo",[3],33.97 min
same,change from baseline in average sleep latency on MWT vs placebo,"4 patients with NT1, 2-8 hours post-dose",statistically significant improvement in sleep latency
same,change from baseline in average sleep latency on MWT vs placebo,"10 patients with NT1, 2-8 hours post-dose",statistically significant improvement in sleep latency
